In one data set the test system is Caco2. As to the kind of experiment: Antiproliferative assay, Caco2. Format: cell-based, human. Particulars: Homo sapiens, Caco-2; 48 h incubation; average of three assays, standard error ± 0.5 μM. Here is the method:
(§1) The potential antiproliferative activity of these novel 3-(N-phenylmethyliden)amino-4-imino-3,5-dihydro-4H-chromeno[2,3-d]pyrimidine 10(a-i) and 10-(N-phenylmethyliden)amino-11-imino-11H-naphto[1′,2′:5,6]pyrano[2,3-d]pyrimidine 10(j-l) was evaluated in a panel of eight tumoral cell lines and in diploid skin fibroblasts used as normal cell lines for control. For these antitumor assays, chosen cell lines represent diverse types of human cancer, which are, respectively, human hepatocellular carcinoma (Huh7 D12), human colon adenocarcinoma (Caco2), human breast adenocarcinoma (MDA-MB231), MDA-MB468 for human breast carcinoma which correspond to the Triple Negative Breast Cancer (TNBC), human colon carcinoma (HCT116), PC3 as cell line initiated from bone metastasis of grade IV prostatic adenocarcinoma from a person, MCF7 as breast cancer line isolated from a person and PANC1, as human pancreatic cancer cell line. The potential antiproliferative activity was preliminarily evaluated in vitro at a 25 μM single dose.
(§2) The IC50 was calculated from the full dose-response curve and used as a parameter for the antiproliferative activity of the new compounds.
(§3) Skin diploid fibroblastic cells were provided by BIOPREDIC International Company (Rennes, France). Huh-7D12 (Ref ECACC: 01042712), Caco2 (Ref ECACC: 86010202), MDA-MB-231 (Ref ECACC: 92020424), MDA-MB-468, HCT-116 (Ref ECACC: 91091005), PC3 (Ref ECACC: 90112714), and MCF7 cell lines were obtained from the ECACC collection. PANC1 cell lines, a generous gift of LBAI Inserm 1227 (Brest, France). Cells were grown according to ECACC recommendations in DMEM for Huh-D12, MDA-MB-231, MDA-MB-468 and fibroblast, in EMEM for Caco2, in McCoy’s for HCT-116 and RPMI for PC3 at 37 °C and 5% CO2. All culture media with 10% of FBS, 1% of penicillin-streptomycin and 2 mM glutamine.
(§4) Chemicals were solubilized in DMSO at a concentration of 10 mM (stock solution) and diluted in a culture medium to the desired final concentrations. […] The toxicity test of the chemicals on these cells was as follows: 2 × 10^3 cells for HCT-116 cells or 4 × 10^3 for the other cells were seeded in 96-multi-well plates in triplicate and left for 24 h for attachment, spreading and growing. Then, cells were exposed for 48 h to increasing concentrations of chemicals, ranging from 0.1 μM to 25 μM, in a final volume of 120 μL of culture medium. After 48 h of treatment, cells were washed in PBS and fixed in a cooled 90% ethanol/5% acetic acid solution for 20 min. The nuclei were stained with Hoechst 3342 (B2261 Merck Sigma-Aldrich) and counted. Image acquisition and analysis were performed using automated imaging analysis with a Cellomics Arrayscan VTI/HCS Reader (Thermo/Scientific, Waltham, MA, USA). The survival percentages were calculated as the percentage of cell number after chemical treatment over cell number after DMSO treatment. The IC50 was graphically determined.

Data set [1] in a line: Antiproliferative assay, Caco2. Format: cell-based, human. Particulars: human, Caco-2; SI = IC50 fibroblasts/IC50 on Caco2; read-out: Selectivity Index (SI) Caco2. Here is the method:
as §1, §2, §3, §4

The test system of data set [2] is zebrafish Danio rerio embryos. Description: Zebrafish embryo toxicity assay (Zebratox, FET).
Experimental: Fertilized eggs at 24–48 h post-fertilization (hpf) were selected and transferred to a 96-well plate (1 embryo/well). […] DMSO (0.6%) was used as vehicle control for the test compounds. The exposure duration continued up to 72 hpf because it is the endpoint of embryonic development [41]. The dead embryos were eliminated, and the fertilized eggs were imaged at 0, 24, 48 and 72 hpf.
Eggs were collected 2 h post-fertilization (hpf) and kept in glass Petri dishes containing water for subsequent examination under a binocular microscope to confirm fertilization. […] Chemical treatments were performed by adding DMSO alone (negative control), or test molecule. These experiments were performed in four technical replicates.
The experiments were performed using a Zeiss inverted fluorescent microscope (Observer Z1). The zebrafish toxicological test (Zebratox) was realized as follows: the 24 h post-fertilization embryos were arrayed by hand with one embryo per well in black-walled 96-well microplates for fluorescence assays (Perkin Elmer, Waltham, MA, USA). The embryos were treated before hatching from 0 to 72 h post-fertilization. The 20 mM DMSO stock chemicals were diluted in fish water and added to the wells at final concentrations from 0.0 2µM to 5 μM. The negative control (0.25% DMSO) was added to each replicate plate. The experiments were realized in triplicate in three independent plates. […] The zebrafish fertilized eggs were provided by the ImPACcell-Biosit Zebrafish facilities (Rennes, France).
A further data set has as its system HCT 116. Description: Antiproliferative assay, HCT 116. Format: cell-based, human. Here is the method:
as §1, §2, §3, §4

Where [3] appears, read: 48 and 72 hpf treatment, up to 5 μM.

Entries after “also recorded” stand apart in the source; their conditions may differ.

By IC50 is commonly meant the concentration that inhibits the measured activity by half. A lower IC50 goes with inhibition by little substance. In the case of `COc1cccc2c1Oc1ncn(/N=C/c3ccccc3O)c(=N)c1C2` [10h, (3E) 3-N-(2-Hydroxyphenylmethylidene)amino-4-imino-9-methoxy-3,5-dihydro-4H-chromeno[2,3-d]pyrimidine], the IC50 came to 300 nM with Caco2 and 240 nM in the data set with HCT 116 (Homo sapiens, HCT-116, 48 h incubation, average of three assays, standard error ± 0.5 μM). In addition, the selectivity ratio at 48 h in data set [1] was over 83.3. In addition, the “hatching of the embryos” value in data set [2] (5 μM dose at 72 hpf) and in data set [2] (setting [3]) was “complete hatching” throughout. Further, the “toxic effect on zebrafish embryos” value in data set [2] (5 μM dose at 72 hpf) is recorded as “no toxic effect; also recorded: without toxic effect”; in data set [2] (setting [3]), “no toxic effect”. In addition, in the data set on HCT 116 (SI = IC50 fibroblasts/IC50 on HCT 116), the “Selectivity Index (SI) HCT 116” value is over 104.2.
